{"source": "patent US8658604B2", "about": "“Template-fixed beta-hairpin peptidomimetics with protease inhibitory activity” (Polyphor Ltd, priority 2005, dated 2014)", "key": {"[1]": {"molecular_target": "T1, Elastase from human neutrophils (Homo sapiens, UniProt P08246)", "T1 sequence (P08246 30-267)": "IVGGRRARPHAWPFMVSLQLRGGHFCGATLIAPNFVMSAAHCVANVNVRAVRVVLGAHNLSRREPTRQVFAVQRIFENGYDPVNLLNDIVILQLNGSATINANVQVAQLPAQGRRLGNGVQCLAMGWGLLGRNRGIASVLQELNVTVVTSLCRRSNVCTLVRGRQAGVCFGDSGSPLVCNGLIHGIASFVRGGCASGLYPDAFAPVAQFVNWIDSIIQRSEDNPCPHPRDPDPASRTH", "experiment": "Enzymatic assay, elastase", "conditions": "Elastase IC50"}, "HELA cells (Acc57)": {"test_system": "HELA cells (Acc57)", "experiment": "Cytotoxicity assay (MTT reduction), HELA cells", "format": "cell-based", "conditions": "Hela cells", "description": "The cytotoxicity of the peptides to HELA cells (Acc57) and COS-7 cells (CRL-1651) was determined using the MTT reduction assay [see ref. 2 and 3, below]. Briefly the method was as follows: HELA cells and COS-7 cells were seeded at 7.0×10^3 and, respectively, 4.5×10^3 cells per well and grown in 96-well microtiter plates for 24 hours at 37° C. at 5% CO2. At this point, time zero (Tz) was determined by MTT reduction (see below). The supernatant of the remaining wells was discarded, and fresh medium and the peptides in serial dilutions of 12.5, 25 and 50 μM were pipetted into the wells. Each peptide concentration was assayed in triplicate. Incubation of the cells was continued for 48 hours at 37° C. at 5% CO2. Wells were then washed once with phosphate buffered saline (PBS) and subsequently 100 μl MTT reagent (0.5 mg/ml in medium RPMI1640 and, respectively, DMEM) were added to the wells. This was incubated at 37° C. for 2 hours and subsequently the medium was aspirated and 100 μl isopropanol were added to each well. The absorbance at 595 nm of the solubilized product was measured (OD595peptide). For each concentration averages were calculated from triplicates. The percentage of growth was calculated as follows: (OD595peptide-OD595Tz-OD595Empty well)/(OD595Tz-OD595Empty well)×100% and was plotted for each peptide concentration.\nThe LC 50 values (Lethal Concentration, defined as the concentration that kills 50% of the cells) were determined for each peptide by using the trend line function of EXCEL (Microsoft Office 2000) for the concentrations (50, 25, 12.5 and 0 μM), the corresponding growth percentages and the value −50, (=TREND(C50:C0,%50:%0,−50)).\nThe GI 50 (Growth Inhibition) concentrations were calculated for each peptide by using a trend line function for the concentrations (50, 25, 12.5 and 0 μg/ml), the corresponding percentages and the value 50, (=TREND (C50:C0,%50:%0,50)."}, "[2]": {"molecular_target": "Thrombin, from Human Plasma (Homo sapiens, UniProt P00734)", "experiment": "Enzymatic assay, thrombin"}, "[3]": {"molecular_target": "Coagulation Factor Xa, from uman plasma (Homo sapiens, UniProt P00742)", "sequence (P00742 235-488 limits assumed)": "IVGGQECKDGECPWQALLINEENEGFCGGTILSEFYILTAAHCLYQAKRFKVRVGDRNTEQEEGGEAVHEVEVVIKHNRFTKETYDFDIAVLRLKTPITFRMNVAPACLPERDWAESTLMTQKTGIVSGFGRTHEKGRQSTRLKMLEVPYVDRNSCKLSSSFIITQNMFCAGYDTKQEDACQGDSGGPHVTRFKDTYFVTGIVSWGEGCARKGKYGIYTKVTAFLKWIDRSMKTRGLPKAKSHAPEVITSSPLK", "sequence (P00742 41-179 limits assumed)": "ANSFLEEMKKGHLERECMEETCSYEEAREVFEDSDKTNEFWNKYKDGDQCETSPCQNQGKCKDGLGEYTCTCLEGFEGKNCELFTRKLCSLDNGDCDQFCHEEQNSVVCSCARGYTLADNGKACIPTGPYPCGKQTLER", "experiment": "Enzymatic assay, coagulation factor Xa"}, "[4]": {"test_system": "Tryptase, from human lung", "experiment": "Enzymatic assay, tryptase", "conditions": "at 100 μM"}, "[5]": {"molecular_target": "Trypsin, from human pancreas (Homo sapiens, UniProt P07477)", "experiment": "Enzymatic assay, trypsin", "conditions": "at 100 μM"}, "[6]": {"molecular_target": "Chymotrypsin, from human pancreas (Homo sapiens, UniProt P17538)", "sequence (P17538 19-263)": "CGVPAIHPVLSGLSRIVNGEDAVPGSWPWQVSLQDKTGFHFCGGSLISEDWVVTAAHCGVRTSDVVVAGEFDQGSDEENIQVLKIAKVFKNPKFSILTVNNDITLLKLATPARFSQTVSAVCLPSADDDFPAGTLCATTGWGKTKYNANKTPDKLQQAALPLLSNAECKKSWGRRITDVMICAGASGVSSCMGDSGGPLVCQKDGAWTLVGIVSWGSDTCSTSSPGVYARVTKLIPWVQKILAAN", "experiment": "Enzymatic assay, chymotrypsin", "conditions": "at 100 μM"}, "[7]": {"molecular_target": "T2, CathepsinG, from human neutrophils (Homo sapiens, UniProt P08311)", "T2 sequence (P08311 21-244)": "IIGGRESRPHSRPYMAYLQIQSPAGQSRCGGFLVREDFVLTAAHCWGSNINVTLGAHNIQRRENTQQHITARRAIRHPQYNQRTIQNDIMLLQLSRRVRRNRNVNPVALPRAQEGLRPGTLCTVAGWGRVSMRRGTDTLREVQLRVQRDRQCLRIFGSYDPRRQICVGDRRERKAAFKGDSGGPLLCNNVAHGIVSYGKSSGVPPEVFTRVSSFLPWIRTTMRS", "experiment": "Enzymatic assay, cathepsin G", "conditions": "at 100 μM"}, "[8]": {"molecular_target": "Urokinase from human urine (Homo sapiens, UniProt P00749)", "experiment": "Enzymatic assay, urokinase"}, "Chymase, from human skin": {"molecular_target": "T3, Chymase, from human skin (Homo sapiens, UniProt P23946)", "T3 sequence (P23946 22-247)": "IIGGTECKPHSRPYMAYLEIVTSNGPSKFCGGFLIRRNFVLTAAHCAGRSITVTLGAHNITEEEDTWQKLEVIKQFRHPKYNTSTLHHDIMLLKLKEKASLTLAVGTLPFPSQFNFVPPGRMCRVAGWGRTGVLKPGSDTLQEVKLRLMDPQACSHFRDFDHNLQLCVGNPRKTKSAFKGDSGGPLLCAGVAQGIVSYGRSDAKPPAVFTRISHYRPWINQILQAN", "experiment": "Enzymatic assay, chymase"}}, "note": "Where a SMILES comes first, the peptide text is derived from it.", "data": [{"compound": "CCCC[C@@H]1NC(=O)[C@@H]2CCCN2C(=O)[C@H]2CCCN2C(=O)[C@H](Cc2ccc(O)cc2)NC(=O)[C@@H]2CSSC[C@H](NC1=O)C(=O)N[C@@H]([C@@H](C)O)C(=O)N[C@@H](C)C(=O)N[C@@H](CO)C(=O)N[C@@H]([C@@H](C)CC)C(=O)N1CCC[C@H]1C(=O)N1CCC[C@H]1C(=O)N[C@@H](Cc1ccccc1)C(=O)N2", "note": "[Ex. 89] (HELM PEPTIDE1{[Nle].C.T.A.S.I.P.P.F.C.Y.[dP].P}$PEPTIDE1,PEPTIDE1,2:R3-10:R3|PEPTIDE1,PEPTIDE1,1:R1-13:R2$$$V2.0)", "values": [{"measurement": "IC50", "setting": "[1]", "value": 0.043, "unit": "µM"}, {"measurement": "Cytotoxicity LC50/GI50 Hela cells", "setting": "HELA cells (Acc57)", "value": 51, "unit": "µM"}]}, {"compound": "CCCC[C@@H]1NC(=O)[C@@H]2CCCN2C(=O)[C@H]2CCCN2C(=O)[C@H](CCCNC(=N)N)NC(=O)[C@@H]2CSSC[C@H](NC1=O)C(=O)N[C@@H]([C@@H](C)O)C(=O)N[C@@H](C)C(=O)N[C@@H](CO)C(=O)N[C@@H]([C@@H](C)CC)C(=O)N1CCC[C@H]1C(=O)N1CCC[C@H]1C(=O)N[C@@H](CCC(N)=O)C(=O)N2", "note": "[Ex. 92] (HELM PEPTIDE1{[Nle].C.T.A.S.I.P.P.Q.C.R.[dP].P}$PEPTIDE1,PEPTIDE1,2:R3-10:R3|PEPTIDE1,PEPTIDE1,1:R1-13:R2$$$V2.0)", "values": [{"measurement": "IC50", "setting": "[1]", "value": 0.043, "unit": "µM"}, {"measurement": "Cytotoxicity LC50/GI50 Hela cells", "setting": "HELA cells (Acc57)", "value": 93, "unit": "µM"}]}, {"compound": "CC[C@H](C)[C@@H]1NC(=O)[C@H](CO)NC(=O)[C@H](C)NC(=O)[C@H]([C@@H](C)O)NC(=O)[C@@H]2CSSC[C@H](NC(=O)[C@H](CCC(N)=O)NC(=O)[C@@H]3CCCN3C(=O)[C@@H]3CCCN3C1=O)C(=O)N[C@@H](Cc1ccc(O)cc1)C(=O)N1CCC[C@@H]1C(=O)N1CCC[C@H]1C(=O)N[C@@H](CCC(C)C)C(=O)N2", "note": "[Ex. 100] (HELM PEPTIDE1{[CC(C)CC[C@H](N[*:1])C(=O)[*:2]].C.T.A.S.I.P.P.Q.C.Y.[dP].P}$PEPTIDE1,PEPTIDE1,2:R3-10:R3|PEPTIDE1,PEPTIDE1,1:R1-13:R2$$$V2.0)", "values": [{"measurement": "Cytotoxicity LC50/GI50 Hela cells", "setting": "HELA cells (Acc57)", "value": 83, "unit": "µM"}]}, {"compound": "CCCC[C@@H]1NC(=O)[C@@H]2CCCN2C(=O)[C@H]2CCCN2C(=O)[C@H](Cc2ccc(O)cc2)NC(=O)[C@@H]2CSSC[C@H](NC1=O)C(=O)N[C@@H]([C@@H](C)O)C(=O)N[C@@H](C)C(=O)N[C@@H](CO)C(=O)N[C@@H](CC1CCCC1)C(=O)N1CCC[C@H]1C(=O)N1CCC[C@H]1C(=O)N[C@@H](CCC(N)=O)C(=O)N2", "note": "[Ex. 112] (HELM PEPTIDE1{[Nle].C.T.A.S.[O=C([C@H](CC1CCCC1)N[*:1])[*:2]].P.P.Q.C.Y.[dP].P}$PEPTIDE1,PEPTIDE1,2:R3-10:R3|PEPTIDE1,PEPTIDE1,1:R1-13:R2$$$V2.0)", "values": [{"measurement": "Cytotoxicity LC50/GI50 Hela cells", "setting": "HELA cells (Acc57)", "value": 33, "unit": "µM"}]}, {"compound": "CCCCCCCC[C@@H]1NC(=O)[C@H](CCC(N)=O)NC(=O)[C@H]2CCCN2C(=O)[C@H](Cc2ccc(O)cc2)NC(=O)[C@@H]2CSSC[C@H](NC1=O)C(=O)N[C@@H]([C@@H](C)O)C(=O)N[C@@H](C)C(=O)N[C@@H](CO)C(=O)N[C@@H]([C@@H](C)CC)C(=O)N1CCC[C@H]1C(=O)N1CCC[C@H]1C(=O)N[C@@H](CCC(N)=O)C(=O)N2", "note": "[compound 177] (HELM PEPTIDE1{[CCCCCCCC[C@H](N[*:1])C(=O)[*:2]].C.T.A.S.I.P.P.Q.C.Y.[dP].Q}$PEPTIDE1,PEPTIDE1,2:R3-10:R3|PEPTIDE1,PEPTIDE1,1:R1-13:R2$$$V2.0)", "values": [{"measurement": "Thrombin at 100 μM %", "setting": "[2]", "value": 17, "unit": "%"}, {"measurement": "FXa at 100 μM %", "setting": "[3]", "value": 7, "unit": "%"}, {"measurement": "Tryptase At 100 μM %", "setting": "[4]", "value": 15, "unit": "%"}, {"measurement": "Trypsin at 100 μM %", "setting": "[5]", "value": 5, "unit": "%"}, {"measurement": "Chymotrypsin at 100 μM %", "setting": "[6]", "value": 86, "unit": "%"}, {"measurement": "Cathepsin G at 100 μM %", "setting": "[7]", "value": 54, "unit": "at 100%"}, {"measurement": "IC50", "setting": "[1]", "value": 0.007, "unit": "µM"}, {"measurement": "Urokinase at 100 μM %", "setting": "[8]", "value": 12, "unit": "%"}, {"measurement": "Chymase at 100 μM %", "setting": "Chymase, from human skin", "value": 3, "unit": "%"}]}]}
